Measurements: patent US6410219B1 (priority 1994, dated 2002)
Structures can show the parent of a compound that is named as a salt.

Assays:
[1] = tested on: R-17; format: cell-based, bacteriophage R17
[2] = tested on: CA-HIV; format: cell-based
[3] = tested on: R17; format: cell-based, bacteriophage R17
[4] = tested on: red blood cells; assay: IgG binding to red blood cell surfaces (Example 10); format: cell-based; settings: 10-300 μg/ml
Method: Potassium levels on remaining samples were measured and the samples were stored at 4° C. Potassium measurements were repeated daily for one week or until significant differences were observed. Extracellular potassium data appears in Table 15, and FIG. 6. IgG binding in the samples was measured using Baxter Unival Anti-Human Globulin Anti-IgG for Direct Antiglobulin Test and Baxter Coornbs control Cells for Quality Control of Anti-Human Globulin Test (both available from Baxter Healthcare Corporation, Deerfield, Ill.). The results of IgG Binding as measured by FACScan™ (Becton Dickinson, Mountain View, Calif.) appear in Tables 15 and 16: […]

[5] = tested on: red blood cells
[6] = tested on: red blood cells; settings: Swiss Webster, mouse, in vivo
[7] = tested on: red blood cells; settings: mouse, in vivo
[8] = tested on: R17; format: cell-based, bacteriophage R17; remark: listed apart in the source

## COc1c2occc2c(CN(C)CO)c2ccc(=O)oc12
[1]
  Dose for 5 log kill R-17: >75 μM
  Logs Virus Killed at Fixed Drug Dose, R-17: <0.5

## 4′-[3-(Bis-2-chloroethyl)amino-1-propylaminomethyl]-4,5′,8-trimethylpsoralen
[1]
  Dose for 5 log kill R-17: ≦2 μM
[2]
  Logs Virus Killed at Fixed Drug Dose, CA-HIV: 0.4

## 4′-[4-(Bis-2-chloroethyl)amino-1-butylaminomethyl]-4,5′,8-trimethylpsoralen [Compound S-210]
[2]
  Logs Virus Killed at Fixed Drug Dose, CA-HIV: 0.8

## 5′-[4-(Bis-2chloroethyl)amino-1-butylaminomethyl]-4,4′, 8-trimethylpsoralen
[1]
  Dose for 5 log kill R-17: ≦2 μM
  Logs Virus Killed at Fixed Drug Dose, R-17: >6
[2]
  Logs Virus Killed at Fixed Drug Dose, CA-HIV: 0.7

## O=C(O)CCCc1ccc(N(CCCl)CCCl)cc1 [Chlorambucil, chlorambucil]
[3]
  R17 inactivation: ≤ 0.4 logs
[4]
  IgG binding of red cells: did not alter
[5]
  potassium leakage of red cells: did not alter

## CCN(CCCl)CCCNc1c2ccc(Cl)cc2nc2ccc(OC)cc12 [ICR-170, N-(2-chloroethyl)-N-ethyl-N′-(6-chloro-2-methoxy-9-acridinyl)-1,3-propanediamine dihydrochloride]
[6]
  LOSS PER DAY: 2.71%
  RECOVERY: 86.0 ± 6.6
[7]; Balb/c
  % RECOVERY, LOW: 93.1%
[7]
  % RECOVERY, HIGH: 90.4%

## CCN(CC)CCCC(C)Nc1c2ccc(Cl)cc2nc2ccc(OC)cc12 (stereo not shown) [Q, quinicrine]
[8]
  light-dependent kill of R17: no light-dependent kill
